# System: MCF-10A
# Experiment: normalised response (% of control), CellTox Green; higher = less cell death (100 = DMSO, 0 = benzethonium chloride kill control)
# Conditions: incubation time: 72 h
# Summary of the method: (§1)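 Breast cancer cell lines in 20 µl suspension were added to 384-well plates containing compound at 5 concentrations, spaced in 10-fold steps across a 10,000-fold range chosen for each compound, and incubated for 72 h. CellTox Green fluorescence was read at 485/520 nm, followed by CellTiter-Glo luminescence after 10 min at room temperature. Signals on each plate were normalised so that 0.1 % DMSO equals 100 and a positive kill control equals 0. Every value in the table is the normalised signal at one concentration of the series.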
row,SMILES,normalised response [%]
1,CCN(CC)CCNC(=O)c1c(C)[nH]c(/C=C2\C(=O)Nc3ccc(F)cc32)c1C [Sunitinib] (1000 nM),80.6
2,CC[C@@]1(O)C(=O)OCc2c1cc1n(c2=O)Cc2cc3c(CN(C)C)c(O)ccc3nc2-1 [Topotecan] (100 nM),106

# System: MDA-MB-231
# Experiment: as above
# Conditions: incubation time: 72 h
# Summary of the method: as §1
row,SMILES,normalised response [%]
1,COc1ccc(-c2cc3c(C)nc(N)nc3n([C@H]3CC[C@H](OCCO)CC3)c2=O)cn1 (1000 nM),76.8
2,COc1ccc(-c2cc3c(C)nc(N)nc3n([C@H]3CC[C@H](OCCO)CC3)c2=O)cn1 (10000 nM),4.33
3,O=C(Nc1c[nH]nc1-c1nc2ccc(CN3CCOCC3)cc2[nH]1)NC1CC1 [AT9283] (1000 nM),40.6
4,COc1cc(CCc2cc(NC(=O)c3ccc(N4CC(C)NC(C)C4)cc3)n[nH]2)cc(OC)c1 (stereo unspecified) [AZD4547] (100 nM),90.1
5,CO[C@@H](C(=O)N1Cc2[nH]nc(NC(=O)c3ccc(N4CCN(C)CC4)cc3)c2C1)c1ccccc1 [Danusertib] (1000 nM),101
6,Cc1nc(Nc2ncc(C(=O)Nc3c(C)cccc3Cl)s2)cc(N2CCN(CCO)CC2)n1 [Dasatinib] (100 nM),84.3
7,Cc1nc(Nc2ncc(C(=O)Nc3c(C)cccc3Cl)s2)cc(N2CCN(CCO)CC2)n1 [Dasatinib] (1000 nM),35
8,Cc1c(CN2CCN(C(=O)[C@H](C)O)CC2)sc2c(N3CCOCC3)nc(-c3cnc(N)nc3)nc12 [GDC-0980] (1000 nM),98.8
9,Cc1c(CN2CCN(C(=O)[C@H](C)O)CC2)sc2c(N3CCOCC3)nc(-c3cnc(N)nc3)nc12 [GDC-0980] (10000 nM),98.1
10,C[C@]12O[C@H](C[C@]1(O)CO)n1c3ccccc3c3c4c(c5c6ccccc6n2c5c31)CNC4=O [Lestaurtinib] (1000 nM),89.2
11,O=C1c2c(O)ccc(O)c2C(=O)c2c(NCCNCCO)ccc(NCCNCCO)c21 [Mitoxantrone] (100 nM),94.8
12,O=C1c2c(O)ccc(O)c2C(=O)c2c(NCCNCCO)ccc(NCCNCCO)c21 [Mitoxantrone] (1000 nM),119
13,Nc1ccccc1NC(=O)c1ccc(CNc2nccc(-c3cccnc3)n2)cc1 [Mocetinostat] (10000 nM),-24.5
14,COc1nc(N)nc2c1ncn2[C@@H]1O[C@H](CO)[C@@H](O)[C@@H]1O [Nelarabine] (10000 nM),97.9
15,Cc1ccc(Nc2nccc(N(C)c3ccc4c(C)n(C)nc4c3)n2)cc1S(N)(=O)=O [Pazopanib] (1000 nM),99.5
16,Cc1ccc(Nc2nccc(N(C)c3ccc4c(C)n(C)nc4c3)n2)cc1S(N)(=O)=O [Pazopanib] (10000 nM),99.7
17,C[C@]12C=CC(=O)C=C1CC[C@@H]1[C@@H]2[C@@H](O)C[C@@]2(C)[C@H]1CC[C@]2(O)C(=O)CO [Prednisolone] (10000 nM),150
18,CNC(=O)c1cc(Oc2ccc(NC(=O)Nc3ccc(Cl)c(C(F)(F)F)c3)cc2)ccn1 [Sorafenib] (100 nM),101
19,CNC(=O)c1cc(Oc2ccc(NC(=O)Nc3ccc(Cl)c(C(F)(F)F)c3)cc2)ccn1 [Sorafenib] (1000 nM),100
20,CCN(CC)CCNC(=O)c1c(C)[nH]c(/C=C2\C(=O)Nc3ccc(F)cc32)c1C [Sunitinib] (100 nM),123
21,CCN(CC)CCNC(=O)c1c(C)[nH]c(/C=C2\C(=O)Nc3ccc(F)cc32)c1C [Sunitinib] (1000 nM),124
22,CC[C@@]1(O)C(=O)OCc2c1cc1n(c2=O)Cc2cc3c(CN(C)C)c(O)ccc3nc2-1 [Topotecan] (100 nM),108

# System: MDA-MB-453
# Experiment: as above
# Conditions: incubation time: 72 h
# Summary of the method: as §1
row,SMILES,normalised response [%]
1,COc1ccc(-c2cc3c(C)nc(N)nc3n([C@H]3CC[C@H](OCCO)CC3)c2=O)cn1 (1000 nM),84.2
2,COc1ccc(-c2cc3c(C)nc(N)nc3n([C@H]3CC[C@H](OCCO)CC3)c2=O)cn1 (10000 nM),61.1
3,O=C(Nc1c[nH]nc1-c1nc2ccc(CN3CCOCC3)cc2[nH]1)NC1CC1 [AT9283] (1000 nM),101
4,COc1cc(CCc2cc(NC(=O)c3ccc(N4CC(C)NC(C)C4)cc3)n[nH]2)cc(OC)c1 (stereo unspecified) [AZD4547] (100 nM),100
5,CO[C@@H](C(=O)N1Cc2[nH]nc(NC(=O)c3ccc(N4CCN(C)CC4)cc3)c2C1)c1ccccc1 [Danusertib] (1000 nM),84.9
6,Cc1nc(Nc2ncc(C(=O)Nc3c(C)cccc3Cl)s2)cc(N2CCN(CCO)CC2)n1 [Dasatinib] (100 nM),97.2
7,Cc1nc(Nc2ncc(C(=O)Nc3c(C)cccc3Cl)s2)cc(N2CCN(CCO)CC2)n1 [Dasatinib] (1000 nM),92.5
8,Cc1c(CN2CCN(C(=O)[C@H](C)O)CC2)sc2c(N3CCOCC3)nc(-c3cnc(N)nc3)nc12 [GDC-0980] (1000 nM),104
9,Cc1c(CN2CCN(C(=O)[C@H](C)O)CC2)sc2c(N3CCOCC3)nc(-c3cnc(N)nc3)nc12 [GDC-0980] (10000 nM),86.7
10,C[C@]12O[C@H](C[C@]1(O)CO)n1c3ccccc3c3c4c(c5c6ccccc6n2c5c31)CNC4=O [Lestaurtinib] (100 nM),102
11,C[C@]12O[C@H](C[C@]1(O)CO)n1c3ccccc3c3c4c(c5c6ccccc6n2c5c31)CNC4=O [Lestaurtinib] (1000 nM),104
12,O=C1c2c(O)ccc(O)c2C(=O)c2c(NCCNCCO)ccc(NCCNCCO)c21 [Mitoxantrone] (100 nM),104
13,O=C1c2c(O)ccc(O)c2C(=O)c2c(NCCNCCO)ccc(NCCNCCO)c21 [Mitoxantrone] (1000 nM),112
14,Nc1ccccc1NC(=O)c1ccc(CNc2nccc(-c3cccnc3)n2)cc1 [Mocetinostat] (10000 nM),92.3
15,COc1nc(N)nc2c1ncn2[C@@H]1O[C@H](CO)[C@@H](O)[C@@H]1O [Nelarabine] (10000 nM),87
16,Cc1ccc(Nc2nccc(N(C)c3ccc4c(C)n(C)nc4c3)n2)cc1S(N)(=O)=O [Pazopanib] (1000 nM),95.2
17,Cc1ccc(Nc2nccc(N(C)c3ccc4c(C)n(C)nc4c3)n2)cc1S(N)(=O)=O [Pazopanib] (10000 nM),102
18,C[C@]12C=CC(=O)C=C1CC[C@@H]1[C@@H]2[C@@H](O)C[C@@]2(C)[C@H]1CC[C@]2(O)C(=O)CO [Prednisolone] (10000 nM),94.6
19,CNC(=O)c1cc(Oc2ccc(NC(=O)Nc3ccc(Cl)c(C(F)(F)F)c3)cc2)ccn1 [Sorafenib] (100 nM),95.1
20,CNC(=O)c1cc(Oc2ccc(NC(=O)Nc3ccc(Cl)c(C(F)(F)F)c3)cc2)ccn1 [Sorafenib] (1000 nM),102
21,CCN(CC)CCNC(=O)c1c(C)[nH]c(/C=C2\C(=O)Nc3ccc(F)cc32)c1C [Sunitinib] (100 nM),102
22,CCN(CC)CCNC(=O)c1c(C)[nH]c(/C=C2\C(=O)Nc3ccc(F)cc32)c1C [Sunitinib] (1000 nM),104

# Reference: the supplement of paper PMC4862054
